{"source": "patent US20080255232A1", "about": "“Naphthyl Derivatives as Inhibitors of Beta-Amyloid Aggregation” (SIGMA-TAU INDUSTRIE FARMACEUTICHE RIUNITE S.P.A., priority 2005, published 2008)", "key": {"peptide βA1-42": {"biological_target": "T1, peptide βA1-42 (Homo sapiens, UniProt P05067)", "T1 construct": "The β-A(1-42) was dissolved in a mixture of Acetonitrile and distilled water", "T1 sequence (P05067 672-713)": "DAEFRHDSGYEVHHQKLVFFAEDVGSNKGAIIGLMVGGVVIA", "experiment": "Anti-aggregating activity on peptide βA1-42, thioflavin T fluorescence", "type": "biochemical", "details": "thioflavin T binding, aggregate + non aggregate β-A(1-42), 37° C., 24 hours; read-out: IC50 (dose reducing the aggregate formation of the 50%)", "method": "The anti-aggregating activity of the compound of formula (I) on the peptide βA1-42 is carried out via the binding of the thioflavin T according to the following procedure.\nThe β-A(1-42) was dissolved in a mixture of Acetonitrile and distilled water (CH3CN/H2O 1:1) to the final concentration of 1 mg/mL. The solution was divided in aliquots of 2 mL and stored at −80° C. until the use. The work solution was prepared diluting the stock solution five times with H2O (final concentration 44 μmol/L).\nThe β-A(1-42) was dissolved in a mixture of Acetonitrile and distilled water (CH3CN/H2O 1:1) to the final concentration of 1 mg/mL. An aliquot of 2 mL was freeze-dried to eliminate the trifluoroacetic acid residual of the peptide synthesis. The β-A(1-42) peptide was subsequently dissolved in 0.1 mL of DMSO and 5.0 mL of 2×PBS, pH 7.4. Once dissolved the β-A(1-42) was incubated to 37° C. for 8 days, at the end, after sonication, it was diluted five times with 2×PBS (final concentration 17.4 μmol/L). Waiting to be used, the aggregate β-A(1-42) was divided in aliquots and stored at −80° C.\nFluorescence Measurement with Thioflavin T\nScheme of added volumes in 96-well plates:\nThe assay was performed in triplicate in 96-well plates as reported above in scheme. Test compounds were added in the wells containing the aggregate β-A(1-42) then, 15 after minutes, the non-aggregate β-A(1-42) was added. The 96-well plates were incubated at 37° C. under agitation for 24 hours.\nThe following day, a volume of 200 μL of a solution containing 10 μmol/L thioflavin T and 50 μmol/L Na2HPO4 pH 6.5 was added to each well. Fluorescence was measured in a VICTOR 2 (WALLAC) fluorescence spectrophotometer (λex=450 nm, λem=486 nm) (Findelis M. A et al).\nThe data were expressed as percent of residual aggregated β-A and, when possible, the dose reducing the aggregate formation of the 50% (IC50) was estimate.\nThe % of aggregation was determinated by the following formula:\n(βAmyloid+Test compound)−(Blank+Test compound)×100"}, "[1]": {"experiment": "Blood brain barrier crossing: plasma and brain concentrations after s.c. injection", "type": "in vivo", "details": "mice, s.c. 25 mg/kg", "method": "In order to obtain basic information on the concentration achieved in brain of rodents after parental doses and their relationship with plasma concentrations, mice and rats were used. […] Compounds were determined in plasma by high-performance liquid chromatography (HPLC) after a solid liquid extraction procedure. Briefly, Oasis HLB 1 cc cartridges were pre-wetted with methanol and distilled water. Then internal standard, mouse plasma or rat plasma were added and the cartridges were washed with mater-methanoland methanol, interrupting the vacuum before the column was completely dry after each passage. The compound was removed by eluiting the cartridges with methanol and evaporated to dryness under nitrogen. The residue was dissolved in the mobile phase centrifuged and analyzed by HPLC with UV detection (224 nm).\nSeparation was done on a pBondapack C18 column protected by a LiChrosphere RP-8 pre-column at room temperature. The mobile phase was CH3CN:CH3OH:0.001M KH2PO4 (40:10:50 v/v) delivered at a flow rate of 1.2 mL/min.\nBrain tissue was homogenized (1 g/10 ml) in CH3CN:0.001M phosphate buffer, pH 7.4 and a volume containing approximately 100 mg of tissue was centrifuged. The supernatant was processed as for plasma.\nMean brain and plasma area under the concentration-time curve (AUCt) were determined using the linear trapezoidal rule and extrapolated to infinity (AUC) by the concentration method. The elimination rate constant was calculated by least squares regression analysis of the terminal log-linear portion of the plasma and the brain drug concentration curves. The maximum concentration (Cmax) and the time (tmax) of its occurrence were read directly from the plasma and brain concentration time data."}}, "note": "Where a name gives a salt, the structure may show the parent alone. Read-outs that look alike come from different tables or passages of the source.", "data": [{"smiles": "Oc1ccc2ccccc2c1Cc1c(O)ccc2ccccc12", "note": "[ST1859, 1-[(2-hydroxy-1-naphthyl)methyl]-2-naphthol, reference compound]", "values": [{"measurement": "IC50", "setting": "peptide βA1-42", "result": 23.5, "unit": "µM"}]}, {"smiles": "COc1ccc(Nc2ccccc2)c2ccccc12", "note": "[ST2173, 4-methoxy-N-phenyl-1-naphthalenamine]", "values": [{"measurement": "melting point", "result": "141 to 143", "unit": "°C"}]}, {"smiles": "COc1ccc(Nc2ccc(OC)c3ccccc23)cc1C(=O)O", "note": "[ST2174, 2-methoxy-5-[(4-methoxy-1-naphthyl)amino]benzoic acid]", "values": [{"measurement": "melting point", "result": "153 to 154", "unit": "°C"}]}, {"smiles": "COc1ccc(Nc2ccc(OC)c3ccccc23)cc1", "note": "[ST2175, 4-methoxy-N-(4-methoxyphenyl)-1-naphthalenamine]", "values": [{"measurement": "Cmax, Brain", "setting": "[1]; brain", "result": "410 ng/mL or L"}, {"measurement": "AUCt, Brain", "setting": "[1]; brain, linear trapezoidal rule", "result": "1643 ng/L · h or g"}, {"measurement": "Kp at 0.25 h", "setting": "[1]; mouse, brain, sc, 25 mg/kg, 15 min, read-out: Brain to Plasma ratio", "result": 2.3}, {"measurement": "Kp at 0.5 h", "setting": "[1]; mouse, brain, sc, 25 mg/kg, 30 min, read-out: Brain to Plasma ratio", "result": 3.6}, {"measurement": "Kp at 1 h", "setting": "[1]; mouse, brain, sc, 25 mg/kg, 60 min, read-out: Brain to Plasma ratio", "result": 2.5}, {"measurement": "Kp at 2 h", "setting": "[1]; mouse, brain, sc, 25 mg/kg, 120 min, read-out: Brain to Plasma ratio", "result": 2}, {"measurement": "Kp at 3 h", "setting": "[1]; mouse, brain, sc, 25 mg/kg, 180 min, read-out: Brain to Plasma ratio", "result": 1.8}, {"measurement": "Kp at 4 h", "setting": "[1]; mouse, brain, sc, 25 mg/kg, 240 min, read-out: Brain to Plasma ratio", "result": 1.3}, {"measurement": "Kp at 6 h", "setting": "[1]; mouse, brain, sc, 25 mg/kg, 360 min, read-out: Brain to Plasma ratio", "result": 1.7}, {"measurement": "Kp", "setting": "[1]; mouse, brain, sc, 25 mg/kg, read-out: AUCt, Brain to Plasma ratio", "result": 1.9}, {"measurement": "Kp", "setting": "[1]; mouse, brain, sc, 25 mg/kg, read-out: Cmax, Brain to Plasma ratio", "result": 2.5}, {"measurement": "concentration at 15 min", "setting": "[1]; mouse, brain, sc, 15 min, read-out: Brain (mean ± SD)", "result": "321 ± 130", "unit": "ng/g"}, {"measurement": "concentration at 30 min", "setting": "[1]; mouse, brain, sc, 30 min, read-out: Brain (mean ± SD)", "result": "398 ± 269", "unit": "ng/g"}, {"measurement": "concentration at 60 min", "setting": "[1]; mouse, brain, sc, 60 min, read-out: Brain (mean ± SD)", "result": "410 ± 192", "unit": "ng/g"}, {"measurement": "concentration at 120 min", "setting": "[1]; mouse, brain, sc, 120 min, read-out: Brain (mean ± SD)", "result": "289 ± 61", "unit": "ng/g"}, {"measurement": "concentration at 180 min", "setting": "[1]; mouse, brain, sc, 180 min, read-out: Brain (mean ± SD)", "result": "253 ± 77", "unit": "ng/g"}, {"measurement": "concentration at 240 min", "setting": "[1]; mouse, brain, sc, 240 min, read-out: Brain (mean ± SD)", "result": "220 ± 61", "unit": "ng/g"}, {"measurement": "concentration at 360 min", "setting": "[1]; mouse, brain, sc, 360 min, read-out: Brain (mean ± SD)", "result": "232 ± 94", "unit": "ng/g"}, {"measurement": "concentration at 15 min", "setting": "[1]; mouse, plasma, sc, 15 min, read-out: Plasma (mean ± SD)", "result": 138, "unit": "ng/mL"}, {"measurement": "concentration at 30 min", "setting": "[1]; mouse, plasma, sc, 30 min, read-out: Plasma (mean ± SD)", "result": 109, "unit": "ng/mL"}, {"measurement": "concentration at 60 min", "setting": "[1]; mouse, plasma, sc, 60 min, read-out: Plasma (mean ± SD)", "result": "164 ± 18", "unit": "ng/mL"}, {"measurement": "concentration at 120 min", "setting": "[1]; mouse, plasma, sc, 120 min, read-out: Plasma (mean ± SD)", "result": "142 ± 16", "unit": "ng/mL"}, {"measurement": "concentration at 180 min", "setting": "[1]; mouse, plasma, sc, 180 min, read-out: Plasma (mean ± SD)", "result": "139 ± 31", "unit": "ng/mL"}, {"measurement": "concentration at 240 min", "setting": "[1]; mouse, plasma, sc, 240 min, read-out: Plasma (mean ± SD)", "result": "159 ± 38", "unit": "ng/mL"}, {"measurement": "concentration at 360 min", "setting": "[1]; mouse, plasma, sc, 360 min, read-out: Plasma (mean ± SD)", "result": "130 ± 13", "unit": "ng/mL"}, {"measurement": "Tmax", "setting": "[1]; mouse, sc, brain, read-out: tmax, Brain (converted)", "result": 1, "unit": "h"}, {"measurement": "Cmax", "setting": "[1]; mouse, sc, plasma", "result": 164, "unit": "ng/mL"}, {"measurement": "AUC(0-t)", "setting": "[1]; mouse, sc, plasma, linear trapezoidal rule, read-out: AUCt, Plasma", "result": 850, "unit": "ng·h/mL"}, {"measurement": "Tmax", "setting": "[1]; mouse, sc, plasma, read-out: tmax, Plasma (converted)", "result": 1, "unit": "h"}, {"measurement": "IC50", "setting": "peptide βA1-42", "result": 5.59, "unit": "µM"}]}, {"smiles": "Oc1ccc(Nc2ccccc2)c2ccccc12", "note": "[ST2176, 4-anilino-1-naphthol]", "values": [{"measurement": "IC50", "setting": "peptide βA1-42", "result": 5.43, "unit": "µM"}]}, {"smiles": "Oc1ccc(Nc2ccc(O)c3ccccc23)cc1", "note": "[ST2177, 4-(4-hydroxyanilino)-1-naphthol]", "values": [{"measurement": "IC50", "setting": "peptide βA1-42", "result": 1, "unit": "µM"}]}, {"smiles": "COC(=O)c1ccc(Nc2ccc(O)c3ccccc23)cc1", "note": "[ST2178, methyl 4-[(4-hydroxy-1-naphthyl)amino]benzoate]", "values": [{"measurement": "melting point", "result": "188 to 190", "unit": "°C"}, {"measurement": "IC50", "setting": "peptide βA1-42", "result": 5.13, "unit": "µM"}]}, {"smiles": "O=C(O)c1ccccc1Nc1c(O)ccc2ccccc12", "note": "[ST2757, 2-[(2-hydroxy-1-naphthyl)amino]benzoic acid]", "values": [{"measurement": "IC50", "setting": "peptide βA1-42", "result": 14.1, "unit": "µM"}]}, {"smiles": "COc1ccc2ccccc2c1Nc1c(OC)ccc2ccccc12", "note": "[ST2761, 2-methoxy-N-(2-methoxy-1-naphthyl)naphthalen-1-amine]", "values": [{"measurement": "IC50", "setting": "peptide βA1-42", "result": 5.7, "unit": "µM"}]}, {"smiles": "Oc1c(Nc2ccccc2)ccc2ccccc12", "note": "[ST2762, 1-hydroxy-N-phenylnaphthalen-2-aminiumchloride]", "values": [{"measurement": "IC50", "setting": "peptide βA1-42", "result": 2.4, "unit": "µM"}]}, {"smiles": "COc1ccccc1Nc1ccc(OC)c2ccccc12", "note": "[ST2879, N-(4-methoxy-1-naphthyl)-N-(2-methoxyphenyl)amine]", "values": [{"measurement": "melting point", "result": "108 to 110", "unit": "°C"}]}, {"smiles": "COc1ccc(Nc2ccc([N+](=O)[O-])c3ccccc23)cc1", "note": "[ST3451, N-(4-methoxyphenyl)-4-nitronaphthalen-1-amine]", "values": [{"measurement": "IC50", "setting": "peptide βA1-42", "result": 2.7, "unit": "µM"}]}, {"smiles": "CSc1ccc(Nc2ccc(N(C)C)c3ccccc23)cc1", "note": "[ST3458, N,N-dimethyl-N′-[4-(methylthio)phenyl]naphthalene-1,4-diamine dihydrochloride]", "values": [{"measurement": "IC50", "setting": "peptide βA1-42", "result": 2.2, "unit": "µM"}]}, {"smiles": "O=C(O)c1ccc(Nc2ccc3ccccc3c2O)cc1", "note": "[ST3459, 4-[(1-hydroxy-2-naphthyl)amino]benzoic acid]", "values": [{"measurement": "IC50", "setting": "peptide βA1-42", "result": 2.6, "unit": "µM"}]}, {"smiles": "Oc1ccc(Sc2ccc(O)c3ccccc23)cc1", "note": "[ST3501, 4-[(4-hydroxyphenyl)thio]-1-naphthol]", "values": [{"measurement": "IC50", "setting": "peptide βA1-42", "result": 7.2, "unit": "µM"}]}]}
